Laboratory results as given in PubChem BioAssay AID1845200 (Molecular Pharmacology Branch, DTP, NCI, 2023).

System: ASPS-1 complex tumor spheroids, viability
Test: Anticancer human tumor ASPS-1 cell line growth inhibition;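 further: spheroids exposed to agents for 7 days after 3 days of growth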;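 on viability, T/C: 100% = DMSO vehicle treated spheroids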
Conditions: for IC50: curve of first compound; for viability, T/C: stronger effect = lower value
Outline: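 Single agents and combinations were tested on spheroids built from tumor cells plus HUVEC and hMSC, at half-log dilutions starting at or near clinical Cmax, else 10 microM; final DMSO 0.25% (v/v).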

[1] = second compound 1 µM, first compound 0.0316 µM
[2] = second compound 1 µM, first compound 0.1 µM
[3] = second compound 1 µM, first compound 0.316 µM
[4] = second compound 1 µM, first compound 1 µM
[5] = second compound 1 µM, first compound 3.16 µM
[6] = second compound 1 µM, first compound 10 µM
[7] = second compound 3.16 µM, first compound 0.0316 µM
[8] = second compound 3.16 µM, first compound 0.1 µM
[9] = second compound 3.16 µM, first compound 0.316 µM
[10] = second compound 3.16 µM, first compound 1 µM
[11] = second compound 3.16 µM, first compound 3.16 µM
[12] = second compound 3.16 µM, first compound 10 µM
[13] = second compound 10 µM, first compound 0.0316 µM
[14] = second compound 10 µM, first compound 0.1 µM
[15] = second compound 10 µM, first compound 0.316 µM
[16] = second compound 10 µM, first compound 1 µM
[17] = second compound 10 µM, first compound 3.16 µM
[18] = second compound 10 µM, first compound 10 µM
[19] = second compound 31.6 µM, first compound 0.0316 µM
[20] = second compound 31.6 µM, first compound 0.1 µM
[21] = second compound 31.6 µM, first compound 0.316 µM
[22] = second compound 31.6 µM, first compound 1 µM
[23] = second compound 31.6 µM, first compound 3.16 µM
[24] = second compound 31.6 µM, first compound 10 µM
[25] = second compound 100 µM, first compound 0.0316 µM
[26] = second compound 100 µM, first compound 0.1 µM
[27] = second compound 100 µM, first compound 0.316 µM
[28] = second compound 100 µM, first compound 1 µM
[29] = second compound 100 µM, first compound 3.16 µM
[30] = second compound 100 µM, first compound 10 µM

For `CC1COCCN1c1cc(-c2ccnn2C)c2ccnc(-c3ccn[nH]3)c2n1` (stereo not given) + Cn1nnc2c(C(N)=O)ncn2c1=O, the IC50 (second compound 1 µM) was 0.224 µM, the IC50 (second compound 3.16 µM) was under 0.0316 µM and the IC50 (second compound 10 µM) was under 0.0316 µM. It also gave an IC50 (second compound 31.6 µM) of under 0.0316 µM, an IC50 (second compound 100 µM) of under 0.0316 µM and a viability, T/C [1] of 72.3%. It also gave a viability, T/C [2] of 59.2%, a viability, T/C [3] of 46.6% and a viability, T/C [4] of 41.1%. The viability, T/C [5] was 46.1%, the viability, T/C [6] was 43.9% and the viability, T/C [7] was 38.5%. For the same compound, the viability, T/C [8] was 44%, the viability, T/C [9] was 42.2% and the viability, T/C [10] was 41.6%. The viability, T/C [11] was 43%, the viability, T/C [12] was 50.2% and the viability, T/C [13] was 42.4%. The viability, T/C [14] was 39.4%, the viability, T/C [15] was 35.5% and the viability, T/C [16] was 38.1%. For the same compound, the viability, T/C [17] was 42.5%, the viability, T/C [18] was 52.4% and the viability, T/C [19] was 37.6%. The viability, T/C [20] was 31.1%, the viability, T/C [21] was 31.7% and the viability, T/C [22] was 32.6%. For the same compound, the viability, T/C [23] was 42.2%, the viability, T/C [24] was 48.3% and the viability, T/C [25] was 24.9%. For the same compound, the viability, T/C [26] was 22.5%, the viability, T/C [27] was 20.4% and the viability, T/C [28] was 23.6%. The viability, T/C [29] was 29.6% and the viability, T/C [30] was 42%.
`COc1cc(C)[nH]c(=O)c1CN1CCc2c(Cl)cc(C(OC)C3COC3)c(Cl)c2C1=O` (stereo not given) + Cn1nnc2c(C(N)=O)ncn2c1=O gave an IC50 (second compound 1 µM) of over 10 µM, an IC50 (second compound 3.16 µM) of over 10 µM and an IC50 (second compound 10 µM) of over 10 µM. The IC50 (second compound 31.6 µM) was over 10 µM, the IC50 (second compound 100 µM) was over 10 µM and the viability, T/C [1] was 107%. The viability, T/C [2] was 104%, the viability, T/C [3] was 99.2% and the viability, T/C [4] was 98.6%. For the same compound, the viability, T/C [5] was 94.7%, the viability, T/C [6] was 96.7% and the viability, T/C [7] was 103%. It also gave a viability, T/C [8] of 101%, a viability, T/C [9] of 103% and a viability, T/C [10] of 104%. The viability, T/C [11] was 103%, the viability, T/C [12] was 90.8% and the viability, T/C [13] was 75.3%. For the same compound, the viability, T/C [14] was 83.9%, the viability, T/C [15] was 94.9% and the viability, T/C [16] was 86.8%. For the same compound, the viability, T/C [17] was 91%, the viability, T/C [18] was 81.2% and the viability, T/C [19] was 80.4%. For the same compound, the viability, T/C [20] was 82.5%, the viability, T/C [21] was 82.5% and the viability, T/C [22] was 84.1%. It also gave a viability, T/C [23] of 82.7%, a viability, T/C [24] of 75.2% and a viability, T/C [25] of 81.8%. For the same compound, the viability, T/C [26] was 78.6%, the viability, T/C [27] was 72.9% and the viability, T/C [28] was 72.7%. The viability, T/C [29] was 69% and the viability, T/C [30] was 70%.
Work on `COc1ccc([C@@H](O)c2cc(-c3ncnc4cc(N5CCOCC5)ccc34)c(F)cc2Cl)nn1` + Cn1nnc2c(C(N)=O)ncn2c1=O yielded an IC50 (second compound 1 µM) of 9.75 µM, an IC50 (second compound 3.16 µM) of over 10 µM and an IC50 (second compound 10 µM) of 6.72 µM. The IC50 (second compound 31.6 µM) was 2.61 µM, the IC50 (second compound 100 µM) was 1.73 µM and the viability, T/C [1] was 107%. For the same compound, the viability, T/C [2] was 103%, the viability, T/C [3] was 106% and the viability, T/C [4] was 101%. It also gave a viability, T/C [5] of 92%, a viability, T/C [6] of 48.4% and a viability, T/C [7] of 103%. It also gave a viability, T/C [8] of 102%, a viability, T/C [9] of 105% and a viability, T/C [10] of 99.8%. The viability, T/C [11] was 75.7%, the viability, T/C [12] was 53.1% and the viability, T/C [13] was 92%. For the same compound, the viability, T/C [14] was 94.9%, the viability, T/C [15] was 99% and the viability, T/C [16] was 79.2%. The viability, T/C [17] was 69.8%, the viability, T/C [18] was 40.3% and the viability, T/C [19] was 82.7%. For the same compound, the viability, T/C [20] was 83.7%, the viability, T/C [21] was 77.2% and the viability, T/C [22] was 67.7%. The viability, T/C [23] was 46.2%, the viability, T/C [24] was 33.8% and the viability, T/C [25] was 82.1%. For the same compound, the viability, T/C [26] was 67.6%, the viability, T/C [27] was 64.7% and the viability, T/C [28] was 57.1%. It also gave a viability, T/C [29] of 44.5% and a viability, T/C [30] of 33.2%.
